Measurements: patent US20240384268A1, “Oligonucleotides” (Hudson Institute of Medical Research, priority 2021, published 2024)
l = locked nucleic acid (LNA); d = 2'-deoxy (DNA)

Columns and labels:
[1] = molecular target: T1, STING (Homo sapiens, UniProt Q86WV6); assay: STING agonist (GSK, DMXAA)-driven IP-10 in MG-63 cells and immortalised mouse BMDMs; format: cell-based; conditions: C2-Mut1 500 nM 6 h (GSK 100 nM, DMXAA 50 μg/ml); MOE/LNA ASOs 1 mM as printed (GSK, MG-63)
T1 construct: host or cells: MG-63 (human osteosarcoma)

[2] = molecular target: T2, cGAS (Homo sapiens, UniProt Q8N884); assay: ISD70-driven IP-10 production in MG-63 cells; format: cell-based; parameters: endogenous in cells
[3] = molecular target: T3, TLR3 (Homo sapiens, UniProt O15455); assay: pIC-driven IP-10 in MG-63 cells; format: cell-based; parameters: host or cells: MG-63 (human osteosarcoma); conditions: 1 mM ASO as printed, single preliminary experiment
T3 sequence (O15455 24-904): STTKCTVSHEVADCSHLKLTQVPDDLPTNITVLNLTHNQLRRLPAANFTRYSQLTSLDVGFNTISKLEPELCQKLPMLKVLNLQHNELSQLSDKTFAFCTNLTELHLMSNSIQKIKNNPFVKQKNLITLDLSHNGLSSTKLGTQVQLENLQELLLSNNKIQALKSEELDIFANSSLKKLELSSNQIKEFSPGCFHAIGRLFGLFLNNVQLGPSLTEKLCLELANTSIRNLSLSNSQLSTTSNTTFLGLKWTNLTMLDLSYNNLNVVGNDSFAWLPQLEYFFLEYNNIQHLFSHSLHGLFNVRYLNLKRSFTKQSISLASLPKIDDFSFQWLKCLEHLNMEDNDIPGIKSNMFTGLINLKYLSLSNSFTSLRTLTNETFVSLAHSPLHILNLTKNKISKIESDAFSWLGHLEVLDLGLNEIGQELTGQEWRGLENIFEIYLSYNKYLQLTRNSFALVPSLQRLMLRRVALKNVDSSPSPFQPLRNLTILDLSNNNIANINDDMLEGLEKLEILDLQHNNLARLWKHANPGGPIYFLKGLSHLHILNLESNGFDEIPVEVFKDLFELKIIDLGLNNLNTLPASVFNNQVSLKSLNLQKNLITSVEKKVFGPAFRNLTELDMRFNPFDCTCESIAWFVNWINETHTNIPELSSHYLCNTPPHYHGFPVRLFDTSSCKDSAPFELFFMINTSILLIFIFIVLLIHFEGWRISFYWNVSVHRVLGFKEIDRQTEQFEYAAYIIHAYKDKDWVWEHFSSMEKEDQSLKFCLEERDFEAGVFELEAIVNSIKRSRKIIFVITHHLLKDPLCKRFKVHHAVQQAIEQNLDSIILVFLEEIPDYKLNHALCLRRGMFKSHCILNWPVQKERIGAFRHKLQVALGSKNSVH
Protocol: FIG. 25: MG-63 were pre-treated for […] with […] indicated concentrations of ASOs (except for B3 and HPRT847Mut, used at 500 nM), prior to overnight transfection with ISD, stimulation with […] pIC or 100 nM GSK (Valentin et al., 2021). IP10 levels were measured and normalised to GSK only condition, after background correction. Data shown are from a single experiment in biological triplicate (+/−SEM).

[4] = molecular target: T2, cGAS; assay: ISD70-driven IP-10 (and IFN-β) production in THP-1 cells, ELISA; format: cell-based; parameters: endogenous in cells; host or cells: THP-1 (undifferentiated); conditions: THP-1
[5] = molecular target: cGAS (Mus musculus, UniProt Q8C6L5); assay: ISD-driven IP-10 production in immortalised mouse BMDMs; format: cell-based; parameters: endogenous in cells; host or cells: immortalised wild-type mouse bone marrow macrophages (iBMDMs); conditions: iBMDMs, 500 nM ASO
[6] = molecular target: T4, mouse cGAS (Mus musculus, UniProt Q8C6L5); assay: ISD45-driven ISRE-luciferase in mouse LL171 cells; format: cell-based; conditions: 2′OMe or PS oligos 50-600 nM, ISD45 2.5 μg/ml overnight
T4 construct: endogenous in cells; host or cells: LL171 (mouse L929 cells with ISRE-Luciferase)
Protocol: In such examples, inhibition of cGAS activity can be identified by observation of an overall decreased cGAS response of the cell population, or a lower proportion of cells having cGAS-positive activity as compared to positive control condition in which cells are treated with cGAS agonist in the absence of the oligonucleotide (or in the presence of an appropriate control inhibitory agent). In one example, THP-1 or HT-29 cells are transfected with ISD70 and incubated with an oligonucleotide. cGAS activity can then be determined by cytokine (e.g., IP-10 and/or IFNβ) expression (e.g., gene and/or protein expression) and/or secretion levels, such as by ELISA. A similar assay can be performed with LL171 cells transfected with ISD45. […] By way of example, cGAS enzymatic activity may be assessed in vitro using recombinant cGAS and then measuring activity thereof by way of a cGAMP ELISA.
For cGAS stimulations, cells were treated for indicated duration with ASOs, prior to transfection with ISD70 (human cells) or ISD45 (mouse cells) (the ASOs were not washed off prior to ISD transfection unless otherwise indicated). The cGAS ligands ISD45 (Stetson and Medzhitov, 2006) and ISD70 (also known as VACV-70 (Unterholzner et al., 2010)) (Table 1) were resuspended as follows: 5 1d of sense and 5 μl of antisense strands at 10 μg/μl were added to 90 μl PBS under sterile conditions, heated at 75° C. for 30 min, prior to letting cool down at room temperature and aliquoting (stock at 1 μg/1 l). The ISDs were transfected at a concentration of […] at a ratio of 1 μg:1 μl with Lipofectamine 2000 in Opti-MEM (Thermo Fisher Scientific). HEK-TLR3, HEK-TLR7 and […] were treated with indicated concentration of ASOs for 20-50 min, prior to stimulation with poly(I:C) (Invivogen), R848 (Invivogen), Motolimod (MedChemExpress) and the Class B CpG oligonucleotides ODN 2006 (synthesised by IDT and resuspended in RNase-free TE buffer [Table 1]), respectively. The TLR2/1 agonist PAM3CSK4 (Invivogen), the TLR4 agonist lipopolysaccharide (Invivogen), the Class B CpG oligonucleotides ODN 1826 (synthesised by IDT and resuspended in RNase-free TE buffer), the mouse Sting agonist DMXAA (Cayman) and the human STING agonist (compound #3 from (Raanjulu et al., 2018), referred to as GSK herein—kind gift from Cancer Therapeutics CRC, Australia) were used at indicated concentrations. Aspirin (Sigma—A2093) was resuspended in pure medium to 10 mM, filter sterilised and added to the cells at 2 mM final. All ASOs were synthesised by Integrated DNA Technologies (IDT), and resuspended in RNase-free TE buffer, pH 8.0 (Thermo Fisher Scientific). Cell viability was assessed by adding 1× fresh resazurin solution to the wells (10λ solution made up with 7 mg resazurin [Sigma—R7017] dissolved in 3.5 ml PBS, sterile filtered at […]) for 4 h, prior to reading at with a Fluostar OPTIMA (BMG LABTECH) plate-reader (fluorescence: Excitation 535 nm, Emission 590); wells with medium only and 1× resazurin were used as blanks.
Following transfection, the cells were collected from the 6-wells and aliquoted into 96-wells, just before ASO and overnight TLR stimulation (as above described).

[7] = test system: HPRT; assay: HPRT mRNA levels in SV40T hTERT fibroblasts, RT-qPCR; format: cell-based, human; conditions: 100 nM ASO transfected overnight
[8] = molecular target: T2, cGAS; assay: IFN-driven gene expression in BJ hTERT SV40T fibroblasts (constitutive cGAS activation), RT-qPCR; conditions: ASO transfected 20-100 nM overnight

T2 sequence (Q8N884 whole entry): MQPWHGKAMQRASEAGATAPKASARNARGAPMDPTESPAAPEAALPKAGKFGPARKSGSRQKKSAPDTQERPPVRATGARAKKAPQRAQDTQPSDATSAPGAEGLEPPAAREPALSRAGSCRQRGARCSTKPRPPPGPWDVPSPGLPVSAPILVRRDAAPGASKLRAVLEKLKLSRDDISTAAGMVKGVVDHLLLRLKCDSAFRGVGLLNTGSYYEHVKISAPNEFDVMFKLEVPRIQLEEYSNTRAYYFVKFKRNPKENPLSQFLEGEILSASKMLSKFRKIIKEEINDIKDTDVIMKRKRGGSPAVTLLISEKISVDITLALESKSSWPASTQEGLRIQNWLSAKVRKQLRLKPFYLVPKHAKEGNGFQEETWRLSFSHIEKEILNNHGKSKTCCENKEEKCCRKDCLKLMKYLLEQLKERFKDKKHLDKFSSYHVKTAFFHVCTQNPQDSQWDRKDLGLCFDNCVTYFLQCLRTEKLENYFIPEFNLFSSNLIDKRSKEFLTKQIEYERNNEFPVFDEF
Chain of cGAS (Mus musculus, UniProt Q8C6L5) (Q8C6L5 whole entry): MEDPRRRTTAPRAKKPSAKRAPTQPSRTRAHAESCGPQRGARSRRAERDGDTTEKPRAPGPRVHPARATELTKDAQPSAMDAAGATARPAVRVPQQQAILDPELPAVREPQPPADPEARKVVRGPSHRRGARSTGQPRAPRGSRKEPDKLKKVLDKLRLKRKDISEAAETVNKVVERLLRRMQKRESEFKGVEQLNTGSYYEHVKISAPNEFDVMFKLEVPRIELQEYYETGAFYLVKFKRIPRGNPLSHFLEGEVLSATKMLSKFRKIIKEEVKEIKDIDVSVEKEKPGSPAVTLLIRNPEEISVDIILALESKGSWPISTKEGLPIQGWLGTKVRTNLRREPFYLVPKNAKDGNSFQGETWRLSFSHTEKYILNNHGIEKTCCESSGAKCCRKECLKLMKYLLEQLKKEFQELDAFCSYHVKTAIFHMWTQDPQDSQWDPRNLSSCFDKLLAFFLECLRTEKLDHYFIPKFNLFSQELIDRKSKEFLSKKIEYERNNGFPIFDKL
T1 sequence (Q86WV6 whole entry): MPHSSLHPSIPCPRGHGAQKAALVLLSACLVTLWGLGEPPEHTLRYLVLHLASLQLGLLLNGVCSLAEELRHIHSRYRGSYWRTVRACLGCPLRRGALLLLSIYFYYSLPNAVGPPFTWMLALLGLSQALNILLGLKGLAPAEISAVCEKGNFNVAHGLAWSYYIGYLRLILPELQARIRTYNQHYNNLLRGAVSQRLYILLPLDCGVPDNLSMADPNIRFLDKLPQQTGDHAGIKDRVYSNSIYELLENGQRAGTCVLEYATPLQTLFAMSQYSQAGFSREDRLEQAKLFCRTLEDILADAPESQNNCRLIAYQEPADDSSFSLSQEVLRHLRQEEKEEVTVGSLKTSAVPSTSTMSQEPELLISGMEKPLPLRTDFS
T4 sequence (Q8C6L5 whole entry): as the sequence (Q8C6L5 whole entry) above

Substance | IP-10 production driven by STING synthetic agonists (in words) [1] | IP-10 driven by ISD in MG-63, higher dose (in words) ([2]; 1 mM ASO as printed, single preliminary experiment (FIG. 25)) | IP-10 after ISD in MG-63, MOE and LNA ASOs (in words) ([2]; indicated concentrations up to 500 nM, ~30 min, ISD overnight (FIG. 24)) | IP-10 driven by TLR3 engagement with polyI:C in MG-63 (in words) [3] | IC50 ([4]; ~30 min pre-treatment, ISD70 overnight (FIG. 27), read-out: IC50 (IP-10 after ISD70 transfection), MOE and LNA ASOs) | ISD-induced IP-10 in immortalised mouse BMDMs (in words) ([5]; ISD overnight) | IP-10 induced by the ASO transfected alone, no ISD (in words) ([5]; lipofectamine only (Mock)) | inhibition of ISD45-driven ISRE-luciferase (in words) [6] | HPRT mRNA levels (in words) [7] | inhibition of ISD sensing in MG-63, 2′OMe ASOs (in words) ([2]; C2-Mut1 500 nM 6 h, or ASO847 series ~30 min, ISD70 overnight) | inhibition of ISD70-driven IP-10 production (in words) ([4]; 2′OMe or PS oligos, 100-250 nM, pre-treatment as in figure legends, ISD70 2.5 μg/ml) | inhibition of constitutively expressed ISGs (IFIT1, IFIT2, IFI44; in words) [8]
+C*+G*+C*T*T*T*T*C*T*C*T*C*C*+G*+G*+T (CGCTTTTCTCTCCGGT; sugars from the 5' end l3 d10 l3, all phosphorothioate, methylation of C not given here) [A1-Mut] | not that driven by direct stimulation of STING | only reduced IP-10 driven by ISD | significantly reduced IP-10 levels | only reduced IP-10 driven by ISD | 0.075 µM | did not significantly potentiate IP-10 production | induced low level IP-10 | – | – | – | – | –
mG*mG*mU* mA*mU*mA* mG*mG*A* C*T*C* C*A*G* A*T*G* mU*mU*mU* mC*mC [HPRT-2OMe-847-Mut1] | – | – | – | – | – | – | – | better inhibitor against mouse cGAS activation | still able to reduce HPRT levels | much better inhibitor of cGAS | much better inhibitor of cGAS | as potent as C2-Mutl
